Data taken from patent US20200138827A1, “SMALL MOLECULE MODULATORS OF HUMAN STING” (Curadev Pharma Limited, priority 2017, published 2020).
Where two headings read alike, the source gives them in different places.

Assays:
hSTING(H232) = molecular target: T1, hSTING(H232) (Homo sapiens, UniProt Q86WV6); assay: Luciferase reporter assay in HEK293T-hSTING-Luciferase cells, H232 polymorph; type: cell-based; details: 20 hr stimulation, read-out: H232 activity (EC50 range)
T1 construct: host or cells: HEK293T
Text: (§1) • a) Stable STING expressing cells—Stable HEK293T STING-expressing cell lines were generated using plasmids purchased from Invivogen, Calif., USA, that contain STING cDNA cloned into the pUNO-1 vector under hEF1-HTLV promoter and containing the Blasticidin selection cassette. The plasmids hSTING(R232), hSTING(H232), hSTING(HAQ) were directly procured from Invivogen while hSTING (AQ) and hSTING (Q) were derived from hSTING(HAQ) and hSTING (R232) plasmids respectively by using a PCR based site directed mutagenesis method. These vectors were individually transfected into HEK293T cells using Lipofectamine (Invitrogen) and transfected cells were selected under Blasticidin selection. These transfected cells were further subjected to clonal selection using the limiting dilution method to obtain clonally pure populations of HEK cells transfected with each of the above mentioned human STING variants. Only those clones were selected in which ligand independent activation of STING was minimal. • b) Stable Luciferase reporter gene expressing cells—Stable HEK293T Luciferase reporter gene expressing cell lines were generated using pCDNA4 plasmids under an IRF-inducible promoter. This promoter is comprised of five tandem interferon-stimulated response elements (ISRE) fused to an ISG54 minimal promoter. This vector was transfected into HEK293T cells using Lipofectamine (Invitrogen) and transfected cells were selected under Zeocin selection. These transfected cells were further subjected to clonal selection using the limiting dilution method to obtain clonally pure populations of HEK cells transfected the Luciferase reporter construct. Only those clones were selected in which ligand independent induction of luciferase was minimal.
(§2) 5×10^5 clonally selected HEK293T-hSTING-Luciferase cells were seeded in 384-well plates in growth medium and stimulated with novel compounds. After 20 hr of stimulation supernatant were removed and secretary reporter gene activity were measured using the Quanti-Luc detection system (Invivogen) on a Spectramax i3X luminometer.
(§3) The 5 major polymorphisms of human STING are shown in FIG. 1, with their prevalence in human populations indicated.

IRF pathway = assay: Reporter gene expression assay in THP1-Dual cells, IRF axis (secreted Lucia luciferase); type: cell-based, human; details: read-out: THP-IRF activity (EC50 range)
Description: (§4) THP1-Dual™ cells (Invivogen) were derived from the human THP-1 monocyte cell line by stable integration of two inducible reporter constructs. As a result, THP1-Dual™ cells allow the simultaneous study of the NF-κB pathway, by monitoring the activity of secreted SEAP, and the IRF pathway, by assessing the activity of a secreted luciferase (Lucia). […] THP1-Dual™ cells were seeded in 384-well plates in growth medium and stimulated with novel compounds. After […] of stimulation supernatant were removed and reporter proteins were readily measured in the cell culture supernatant using QUANTI-Blue™ (Invivogen), a SEAP detection reagent, and QUANTI-Luc™ (Invivogen), a luciferase detection reagent on a Spectramax i3X luminometer.

NF-κB pathway = assay: Reporter gene expression assay in THP1-Dual cells, NFkB axis (secreted SEAP); type: cell-based, human; details: read-out: THP-NFKB activity (EC50 range)
Description: as §4

WT/R232 STING protein = molecular target: T2, WT/R232 STING protein (Homo sapiens, UniProt Q86WV6, H232R); assay: Luciferase reporter assay in HEK293T-hSTING-Luciferase cells, WT/R232; type: cell-based; details: 20 hr stimulation, read-out: R232 Activity (EC50 range)
T2 construct: host or cells: HEK293T
How it was run: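 […], read by luminescence from supernatant after 20 h compound stimulation. Cells: clonally selected HEK293T (5×10^5/well) stably carrying WT/R232 human STING and a luciferase reporter under five tandem ISREs fused to an ISG54 minimal promoter.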

hSTING(HAQ) = molecular target: T3, hSTING(HAQ) (Homo sapiens, UniProt Q86WV6, G230A/H232R/R293Q/R71H); assay: Luciferase reporter assay in HEK293T-hSTING-Luciferase cells, HAQ polymorph; type: cell-based; details: 20 hr stimulation, read-out: HAQ activity (EC50 range)
T3 construct: host or cells: HEK293T
Text: as §1, §2, §3

T1 sequence (Q86WV6 whole entry): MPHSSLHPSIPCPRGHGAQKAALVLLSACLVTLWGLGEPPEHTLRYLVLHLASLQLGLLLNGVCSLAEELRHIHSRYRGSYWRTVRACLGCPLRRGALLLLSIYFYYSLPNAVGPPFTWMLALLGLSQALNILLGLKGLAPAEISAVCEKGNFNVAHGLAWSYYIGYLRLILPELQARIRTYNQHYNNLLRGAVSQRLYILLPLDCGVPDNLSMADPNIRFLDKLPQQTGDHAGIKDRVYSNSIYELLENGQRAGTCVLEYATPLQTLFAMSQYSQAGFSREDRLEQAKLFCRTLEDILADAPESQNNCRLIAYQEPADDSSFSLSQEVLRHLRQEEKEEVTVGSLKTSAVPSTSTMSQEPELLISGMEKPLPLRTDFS
T3 sequence (Q86WV6 whole entry R71H/G230A/H232R/R293Q): as the sequence (Q86WV6 whole entry) above, with R71H, G230A, H232R, R293Q counted along it
T2 sequence (Q86WV6 whole entry H232R): as the sequence (Q86WV6 whole entry) above, with H232R counted along it

SMILES | EC50 (hSTING(H232)) | EC50 (IRF pathway; Homo sapiens, THP1-Dual) | EC50 (NF-κB pathway; Homo sapiens, THP1-Dual) | EC50 (WT/R232 STING protein) | EC50 (hSTING(HAQ)) | EC50 (IRF pathway) | EC50 (NF-κB pathway)
O=C(NCc1ccco1)c1ccc2c(c1)N(Cc1c(F)cccc1Cl)C(=O)CS2 [Example 131, 4-(2-chloro-6-fluorobenzyl)-N-(furan-2-ylmethyl)-3-oxo-3,4-dihydro-2H-benzo[b][1,4]thiazine-6-carboxamide] | 1 to 10 µM | > 10 µM | > 10 µM | 1 to 10 µM | > 10 µM |  | 
Cc1ccc(CNC(=O)c2ccc3c(c2)N(Cc2cc(F)cc(F)c2)C(=O)C(C)S3)o1 (centres unmarked) [Example 152, 4-(3,5-difluorobenzyl)-2-methyl-N-((5-methylfuran-2-yl)methyl)-3-oxo-3,4-dihydro-2H-benzo[b][1,4] thiazine-6-carboxamide] | > 10 µM | > 10 µM | > 10 µM | < 1 µM | > 10 µM |  | 
CC1(C)Sc2ccc(C(=O)NCc3cc4ccccc4o3)cc2N(Cc2ccccc2F)C1=O [Example 161, N-(benzofuran-2-ylmethyl)-4-(2-fluorobenzyl)-2,2-dimethyl-3-oxo-3,4-dihydro-2H-benzo[b][1,4] thiazine-6-carboxamide] | > 10 µM | > 10 µM | > 10 µM | 1 to 10 µM | 1 to 10 µM |  | 
O=C(NCc1ccccc1)c1ccc2c(c1)N(Cc1ccccc1)C(=O)CS2 [Example 118, N,4-dibenzyl-3-oxo-3,4-dihydro-2H-benzo[b-1,4]thiazine-6-carboxamide] | 1 to 10 µM | > 10 µM | > 10 µM | 1 to 10 µM | > 10 µM |  | 
Cc1cc(CN2C(=O)C(C)Sc3ccc(C(=O)NCc4c(F)cc(F)cc4F)cc32)on1 (centres unmarked) [Example 158, 2-methyl-4-((3-methylisoxazol-5-yl)methyl)-3-oxo-N-(2,4,6-trifluorobenzyl)-3,4-dihydro-2H-benzo[b][1,4] thiazine-6-carboxamide] | 1 to 10 µM | 1 to 10 µM | 1 to 10 µM | < 1 µM | 1 to 10 µM |  | 
O=C(NCc1ccc(F)cc1)c1ccc2c(c1)N(Cc1c(F)cccc1Cl)C(=O)CS2 [Example 127, 4-(2-chloro-6-fluorobenzyl)-N-(4-fluorobenzyl)-3-oxo-3,4-dihydro-2H-benzo[b-1,4]thiazine-6-carboxamide] | 1 to 10 µM | > 10 µM | > 10 µM | 1 to 10 µM | 1 to 10 µM |  | 
CC1Sc2ccc(C(=O)NCc3cc4ccccc4o3)cc2N(Cc2cc(F)cc(F)c2)C1=O (centres unmarked) [Example 149, N-(benzofuran-2-ylmethyl)-4-(3,5-difluorobenzyl)-2-methyl-3-oxo-3,4-dihydro-2H-benzo[b][1,4] thiazine-6-carboxamide] | < 1 µM | 1 to 10 µM | < 1 µM | < 1 µM | < 1 µM |  | 
CC1Sc2ccc(C(=O)NCc3c(F)cc(F)cc3F)cc2N(Cc2cc(F)cc(F)c2)C1=O (centres unmarked) [Example 145, 4-(3,5-difluorobenzyl)-2-methyl-3-oxo-N-(2,4,6-trifluorobenzyl)-3,4-dihydro-2H-benzo[b-1,4]thiazine-6-carboxamide] | < 1 µM |  |  | < 1 µM | < 1 µM | 1 to 10 µM | 1 to 10 µM
CC1Sc2ccc(C(=O)NCc3ccccc3)nc2N(Cc2cc(F)cc(F)c2)C1=O (centres unmarked) [Example 191, N-benzyl-4-(3,5-difluorobenzyl)-2-methyl-3-oxo-3,4-dihydro-2H-pyrido[3,2-b-1,4]thiazine-6-carboxamide] | 1 to 10 µM | 1 to 10 µM | 1 to 10 µM | < 1 µM | 1 to 10 µM |  | 
O=C(NCc1ccc(F)cc1)c1ccc2c(c1)N(Cc1c(F)cccc1Cl)C(=O)CC2 [Example 269, 1-(2-chloro-6-fluorobenzyl)-N-(4-fluorobenzyl)-2-oxo-1,2,3,4-tetrahydroquinoline-7-carboxamide] | > 10 µM | > 10 µM | > 10 µM | < 1 µM | 1 to 10 µM |  | 
CC1Sc2ncc(C(=O)NCc3c(F)cc(F)cc3F)cc2N(Cc2c(F)cccc2Cl)C1=O (centres unmarked) [Example 196, 1-(2-chloro-6 fluorobenzyl) 3-methyl-2-oxo-N-(2,4,6-trifluorobenzyl)-2,3-dihydro-1H-pyrido[2,3-b][1,4]thiazine-7-carboxamide] | < 1 µM | 1 to 10 µM | 1 to 10 µM | < 1 µM | < 1 µM |  | 
CC1Sc2ncc(C(=O)NCc3cc4ccccc4o3)cc2N(Cc2cc(F)cc(F)c2)C1=O (centres unmarked) [Example 194, N-(benzofuran-2-ylmethyl)-1-(3,5-difluorobenzyl)-3-methyl-2-oxo-2,3-dihydro-1H-pyrido[2,3-b][1,4]thiazine-7-carboxamide] | < 1 µM |  |  | < 1 µM | < 1 µM | 1 to 10 µM | 1 to 10 µM
CC1Sc2ccc(C(=O)NCc3c(F)cc(F)cc3F)cc2N(Cc2cnn(C)c2)C1=O (centres unmarked) [Example 133, 2-methyl-N-2,4,6-trifluorobenzyl-4-[(1-methyl-1H-pyrazol-4-yl)methyl]-3-oxo-3,4-dihydro-2H-1,4-benzothiazine-6-carboxamide] | 1 to 10 µM | > 10 µM | 1 to 10 µM | 1 to 10 µM | 1 to 10 µM |  | 
CC1Sc2ccc(C(=O)NCc3ccco3)cc2N(Cc2cc(F)cc(F)c2)C1=O (centres unmarked) [Example 156, 4-(3,5-difluorobenzyl)-N-(furan-2-ylmethyl)-2-methyl-3-oxo-3,4-dihydro-2H-benzo [b][1,4]thiazine-6-carboxamide] | 1 to 10 µM | 1 to 10 µM | 1 to 10 µM | < 1 µM | 1 to 10 µM |  | 
Cc1ccc(CNC(=O)c2ccc3c(n2)N(Cc2c(F)cccc2Cl)C(=O)C(C)S3)o1 (centres unmarked) [Example 202, 4-(2-chloro-6-fluorobenzyl)-2-methyl-N-((5-methylfuran-2-yl)methyl)-3-oxo-3,4-dihydro-2H-pyrido[3,2-b] [1,4]thiazine-6-carboxamide] | 1 to 10 µM | > 10 µM | > 10 µM | 1 to 10 µM | 1 to 10 µM |  | 
CC1(C)Sc2ccc(C(=O)NCC3CCCCC3)cc2N(Cc2ccccc2F)C1=O [Example 136, N-(cyclohexylmethyl)-4-(2-fluorobenzyl)-2,2-dimethyl-3-oxo-3,4-dihydro-2H-benzo[b-1,4]thiazine-6-carboxamide] | > 10 µM | > 10 µM | > 10 µM | 1 to 10 µM | > 10 µM |  | 
Cc1ccc(CNC(=O)c2ccc3c(n2)N(Cc2cc(F)cc(F)c2)C(=O)C(C)S3)o1 (centres unmarked) [Example 198, 4-(3,5-difluorobenzyl)-2-methyl-N-((5-methylfuran-2-yl)methyl)-3-oxo-3,4-dihydro-2H-pyrido[3,2-b][1,4]thiazine-6-carboxamide] | < 1 µM |  |  | < 1 µM | < 1 µM | 1 to 10 µM | 1 to 10 µM
Cc1cccc(CNC(=O)c2ccc3c(c2)N(Cc2cc(F)cc(F)c2)C(=O)C(C)S3)c1 (centres unmarked) [Example 144, 4-(3,5-difluorobenzyl)-2-methyl-N-(3-methylbenzyl)-3-oxo-3,4-dihydro-2H-benzo[b-1,4]thiazine-6-carboxamide] | 1 to 10 µM | 1 to 10 µM | 1 to 10 µM | < 1 µM | 1 to 10 µM |  | 
Cc1cc(CN2C(=O)C(C)Sc3ccc(C(=O)NCc4c(F)cc(F)cc4F)cc32)no1 (centres unmarked) [Example 159, 2-methyl-4-((5-methylisoxazol-3-yl)methyl)-3-oxo-N-(2,4,6-trifluorobenzyl)-3,4-dihydro-2H-benzo[b][1,4] thiazine-6-carboxamide] | 1 to 10 µM | 1 to 10 µM | 1 to 10 µM | < 1 µM | 1 to 10 µM |  | 
